Target: human GPR40 (Homo sapiens (Human), UniProt O14842)
Test: GPR40 Calcium Flux Assay
Assay type: cell-based
Details: transfected HEK293 cells stably expressing human GPR40; Ca2+ mobilization; mean data; read-out: hGPR40 Ca^2+ Assay EC50
Description: Compounds were tested in a calcium flux assay using transfected HEK293 cells stably expressing either human GPR40 or rat GPR40. Human GPR40 expressing cells were cultured in DMEM-High Glucose media supplemented with 10% fetal bovine serum, 1×L-Glutamine, 1×Penicillin/Streptomycin and 500 μg/mL G418. Rat GPR40 expressing cells were cultured in DMEM-High Glucose media supplemented with 10% fetal bovine serum and 1 μg/mL puromycin. Cells were plated into poly-D-lysine coated 384-well plates and cultured overnight in a 37° C. humidified tissue culture incubator under 5% CO2/[…] atmosphere. On the day of the experiment, the culture media was replaced with assay buffer (HBSS, 20 mM HEPES, 0.1% BSA) and the cells incubated at 37° C. for 1 h. Calcium-sensitive fluorescent dye (Fluo 8 No-Wash Calcium Dye, ABD Bioquest) was then added and the cells incubated for another 30 min at 37° C. followed by 15 min at room temperature while protected from the light. The cell plate and a plate of diluted compounds of Formula (I) were loaded into a fluorescent plate reader that added compounds onto the cells while measuring the fluorescence intensity of each well. The plate reader recorded fluorescence intensity at 1 second intervals for 8 min and provided the data for analysis in an Excel format. EC50 values were calculated using Prism (GraphPad) software.

Chain of human GPR40 (O14842 whole entry): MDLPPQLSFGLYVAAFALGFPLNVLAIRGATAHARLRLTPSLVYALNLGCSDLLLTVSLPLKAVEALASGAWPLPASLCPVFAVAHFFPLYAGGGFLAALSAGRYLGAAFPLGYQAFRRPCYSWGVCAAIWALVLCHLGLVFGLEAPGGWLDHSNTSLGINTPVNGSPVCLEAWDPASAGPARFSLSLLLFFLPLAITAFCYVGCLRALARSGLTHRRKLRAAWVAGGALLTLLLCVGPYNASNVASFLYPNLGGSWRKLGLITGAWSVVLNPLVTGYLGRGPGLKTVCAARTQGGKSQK

With `CC#C[C@@H](CC(=O)O)c1ccc(OCc2ccc3scc(-c4ccc(C(=O)N5CCS(=O)(=O)CC5)cc4C)c3c2)cc1` [Cpd 5, (3S)-3-[4-[[3-[4-(1,1-Dioxo-1,4-thiazinane-4-carbonyl)-2-methyl-phenyl]benzo[b]thiophen-5-yl]methoxy]phenyl]hex-4-ynoic acid] as the compound, how does the EC50 read?
The EC50 was 23 nM.

`CC#C[C@@H](CC(=O)O)c1ccc(OCc2ccc3scc(-c4cccnc4OC)c3c2)cc1` [Cpd 78, (3S)-3-(4-((3-(2-Methoxypyridin-3-yl)benzo[b]thiophen-5-yl)methoxy)phenyl)hex-4-ynoic acid] was tested. Which EC50 did it give?
Its EC50 is 9 nM.

With `Cc1ncccc1-c1csc2ccc(COc3ccc(C4(CC(=O)O)CC(=O)C4)cc3)cc12` [Cpd 38, 2-(1-(4-((3-(2-Methylpyridin-3-yl)benzo[b]thiophen-5-yl)methoxy)phenyl)-3-oxocyclobutyl)acetic acid] as the compound, how does the EC50 read?
The EC50 was 19 nM.

`CC#C[C@@H](CC(=O)O)c1ccc(OCc2ccc3scc(-c4ccc(OCCC(C)(C)O)cc4C)c3c2)nc1` [Cpd 71, (3R)-3-(6-((3-(4-(3-Hydroxy-3-methylbutoxy)-2-methylphenyl)benzo[b]thiophen-5-yl)methoxy)pyridin-3-yl)hex-4-ynoic acid] was tested. Which EC50 did it give?
Its EC50 is 12 nM.

How did the EC50 turn out when `CC#C[C@@H](CC(=O)O)c1ccc(OCc2ccc3scc(-c4cc(OCCOC)cnc4C)c3c2)nc1` [Cpd 92, (3R)-3-(6-((3-(5-(2-Methoxyethoxy)-2-methylpyridin-3-yl)benzo[b]thiophen-5-yl)methoxy)pyridine-3-yl)hex-4-ynoic acid] was run?
The EC50 was 13 nM.

How did the EC50 turn out when `Cc1cc(OC2CCOCC2)ccc1-c1csc2ccc(COc3ccc([C@]4(CC(=O)O)C[C@@H](O)C4)cc3)cc12` [Cpd 37, 2-((1r,3r)-3-Hydroxy-1-(4-((3-(2-methyl-4-((tetrahydro-2H-pyran-4-yl)oxy)phenyl)benzo[b]thiophen-5-yl)methoxy)phenyl)cyclobutyl)acetic acid] was run?
The EC50 was 17 nM.

How did the EC50 turn out when `CC#C[C@@H](CC(=O)O)c1ccc(OCc2ccc3scc(-c4ccc(OCC5(C)CS(=O)(=O)C5)cc4C)c3c2)cc1` [Cpd 18, (3S)-3-(4-((3-(2-Methyl-4-((3-methyl-1,1-dioxidothietan-3-yl)methoxy)phenyl)benzo[b]thiophen-5-yl)methoxy)phenyl)hex-4-ynoic acid] was run?
Its EC50 is 11 nM.

How did the EC50 turn out when `CC#C[C@@H](CC(=O)O)c1ccc(COc2ccc3scc(-c4c(C)cccc4C)c3c2)cc1` [Cpd 27, (3S)-3-(4-(((3-(2,6-Dimethylphenyl)benzo[b]thiophen-5-yl)oxy)methyl)phenyl)hex-4-ynoic acid] was run?
The EC50 was 20 nM.

For `Cc1ccccc1-c1csc2ccc(COc3ccc([C@]4(CC(=O)O)C[C@@H](O)C4)cc3)cc12` [Cpd 31], which EC50 is on record?
The EC50 was 48 nM.

For `CC#C[C@@H](CC(=O)O)c1ccc(OCc2ccc3scc(-c4ccc(OCC5(C)COC5)cc4C)c3c2)cc1` [Cpd 14, (3S)-3-(4-((3-(2-Methyl-4-((3-methyloxetan-3-yl)methoxy)phenyl)benzo[b]thiophen-5-yl)methoxy)phenyl)hex-4-ynoic acid], which EC50 is on record?
The EC50 was 9 nM.

Which EC50 does the source give for `CC#C[C@@H](CC(=O)O)c1ccc(OCc2ccc3scc(-c4cccnc4C)c3c2)cc1` [Cpd 22, (3S)-3-(4-((3-(2-Methylpyridin-3-yl)benzo[b]thiophen-5-yl)methoxy)phenyl)hex-4-ynoic acid] here?
Its EC50 is 8 nM.

How did the EC50 turn out when `Cc1ncccc1-c1csc2ccc(COc3ccc([C@]4(CC(=O)O)C[C@@H](O)C4)cc3)cc12` [Cpd 39] was run?
Its EC50 is 46 nM.

How did the EC50 turn out when `CC#C[C@@H](CC(=O)O)c1ccc(OCc2ccc3scc(-c4ccc(OCC5CCOCC5)cc4C)c3c2)nc1` [Cpd 73, (3R)-3-(6-((3-(2-Methyl-4-((tetrahydro-2H-pyran-4-yl)methoxy)phenyl)benzo[b]thiophen-5-yl)methoxy)pyridin-3-yl)hex-4-ynoic acid] was run?
The EC50 was 13 nM.

With `CC#C[C@@H](CC(=O)O)c1ccc(OCc2ccc3scc(-c4ccc(O)cc4C)c3c2)cc1` [Cpd 7, (3S)-3-[4-[[3-(4-Hydroxy-2-methyl-phenyl)benzo[b]thiophen-5-yl]methoxy]phenyl]hex-4-ynoic acid] as the compound, how does the EC50 read?
The EC50 was 7 nM.

`Cc1ccccc1-c1csc2ccc(COc3ccc(CCC(=O)O)cc3)cc12` [Cpd 1, 3-[4-[[3-(2-Methylphenyl)benzo[b]thiophen-5-yl]methoxy]phenyl]propanoic acid] was tested. Which EC50 did it give?
The EC50 was 7 nM.

`CC#C[C@@H](CC(=O)O)c1ccc(OCc2ccc3scc(-c4ncccc4OC)c3c2)cc1` [Cpd 91, (3S)-3-(4-((3-(3-Methoxypyridin-2-yl)benzo[b]thiophen-5-yl)methoxy)phenyl)hex-4-ynoic acid] was tested. Which EC50 did it give?
Its EC50 is 17 nM.

With `CC#C[C@@H](CC(=O)O)c1ccc(COc2ccc3scc(-c4ccc(OCCC(C)(C)O)cc4C)c3c2)cc1` [Cpd 54, (3S)-3-[4-[([3-[4-(3-Hydroxy-3-methylbutoxy)-2-methylphenyl]-1-benzothiophen-5-yl]oxy)methyl]phenyl]hex-4-ynoic acid] as the compound, how does the EC50 read?
Its EC50 is 44 nM.

How did the EC50 turn out when `Cc1cc(OC2CCS(=O)(=O)CC2)ccc1-c1csc2ccc(COc3ccc(C4(CC(=O)O)CC(=O)C4)cc3)cc12` [Cpd 33, 2-(1-(4-((3-(4-((1,1-Dioxidotetrahydro-2H-thiopyran-4-yl)oxy)-2-methylphenyl)benzo[b]thiophen-5-yl)methoxy)phenyl)-3-oxocyclobutyl)acetic acid] was run?
Its EC50 is 15 nM.

Which EC50 does the source give for `CC#C[C@@H](CC(=O)O)c1ccc(OCc2ccc3scc(-c4ncc(OC)cc4C)c3c2)cc1` [Cpd 84, (3S)-3-(4-((3-(5-Methoxy-3-methylpyridin-2-yl)benzo[b]thiophen-5-yl)methoxy)phenyl)hex-4-ynoic acid] here?
The EC50 was 52 nM.

`CC#CC(CC(=O)O)c1ccc(OCc2ccc3scc(-c4ccc(OCCC(C)(C)O)cc4C)c3c2)nc1` (centres unmarked) [Cpd 61] was tested. Which EC50 did it give?
The EC50 was 16 nM.

Which EC50 does the source give for `CC#C[C@@H](CC(=O)O)c1ccc(OCc2ccc3scc(-c4cnc(OCCOC)cc4C)c3c2)cc1` [Cpd 51, (3S)-3-(4-((3-(6-(2-Methoxyethoxy)-4-methylpyridin-3-yl)benzo[b]thiophen-5-yl)methoxy)phenyl)hex-4-ynoic acid] here?
The EC50 was 6 nM.

Which EC50 does the source give for `Cc1ccccc1-c1csc2ccc(OCc3ccc(CCC(=O)O)cc3)cc12` [Cpd 53, 3-(4-(((3-(2-Methylphenyl)benzo[b]thiophen-5-yl)oxy)methyl)phenyl)propanoic acid] here?
The EC50 was 890 nM.

`CC#CC(CC(=O)O)c1ccc(OCc2ccc3scc(-c4ccc(OCC5CCS(=O)(=O)CC5)cc4C)c3c2)nc1` (centres unmarked) [Cpd 63, 3-(6-((3-(4-((1,1-Dioxidotetrahydro-2H-thiopyran-4-yl)methoxy)-2-methylphenyl)benzo[b]thiophen-5-yl)methoxy)pyridin-3-yl)hex-4-ynoic acid] was tested. Which EC50 did it give?
The EC50 was 10 nM.

With `CC#C[C@@H](CC(=O)O)c1ccc(OCc2ccc3scc(-c4ccc(OCC5(O)CCS(=O)(=O)CC5)cc4C)c3c2)cc1` [Cpd 3, (3S)-3-[4-[[3-[4-[(4-Hydroxy-1,1-dioxo-thian-4-yl)methoxy]-2-methyl-phenyl]benzo[b]thiophen-5-yl]methoxy]phenyl]hex-4-ynoic acid] as the compound, how does the EC50 read?
The EC50 was 5 nM.

`CC#C[C@@H](CC(=O)O)c1ccc(OCc2ccc3scc(-c4cccc(OCCOC)c4C)c3c2)nc1` [Cpd 88, (3R)-3-(6-((3-(3-(2-Methoxyethoxy)-2-methylphenyl)benzo[b]thiophen-5-yl)methoxy)pyridin-3-yl)hex-4-ynoic acid] was tested. Which EC50 did it give?
Its EC50 is 8 nM.

With `Cc1ccccc1-c1csc2ccc(COc3ccc(C4(CC(=O)O)CC(=O)C4)cc3)cc12` [Cpd 30, 2-(3-Oxo-1-(4-((3-(2-methylphenyl)benzo[b]thiophen-5-yl)methoxy)phenyl)cyclobutyl)acetic acid] as the compound, how does the EC50 read?
Its EC50 is 6 nM.
